Measured values taken from PubChem BioAssay AID330 (DTP/NCI, 2004).
Values joined by “and” are separate entries in the source; they are usually repeats but may differ in a detail not shown here. Equal values may be shown once. Toxic doses and inconclusive results are not listed. Rule for the calls: active = survival T/C of 150% or more; inactive = T/C below 125% in these data.

Tested on: P388 leukemia ip, CD2F1 mice, survival T/C
Test: NCI In Vivo Anticancer Drug Screen. Data for tumor model P388 Leukemia (intraperitoneal) in CD2F1 (CDF1) mice
Conditions: endpoint: median survival time, higher = longer survival
Summary of the method: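 Mice carrying the transplanted tumor received test compound or vehicle. Survival was recorded in each group, and the value is the treated-group measurement divided by that of the vehicle-treated control group.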

[1] = dose: 1.56 mg/kg/injection, schedule: Q01DX009 (ip), vehicle: saline
[2] = dose: 3.12 mg/kg/injection, schedule: Q01DX009 (ip), vehicle: saline
[3] = dose: 50.0 mg/kg/injection, schedule: Q01DX009 (ip), vehicle: saline with Tween-80
[4] = dose: 100.0 mg/kg/injection, schedule: Q01DX009 (ip), vehicle: saline with Tween-80
[5] = dose: 60.0 mg/kg/injection, schedule: Q01DX005 (ip), vehicle: saline with Tween-80
[6] = dose: 120.0 mg/kg/injection, schedule: Q01DX005 (ip), vehicle: saline with Tween-80
[7] = dose: 200.0 mg/kg/injection, schedule: Q01DX009 (ip), vehicle: saline with Tween-80
[8] = dose: 400.0 mg/kg/injection, schedule: Q01DX009 (ip), vehicle: saline with Tween-80
[9] = dose: 50.0 mg/kg/injection, schedule: Q01DX009 (ip), vehicle: Klucel (hydroxypropylcellulose) (HPC)
[10] = dose: 100.0 mg/kg/injection, schedule: Q01DX009 (ip), vehicle: Klucel (hydroxypropylcellulose) (HPC)
[11] = dose: 200.0 mg/kg/injection, schedule: Q01DX009 (ip), vehicle: Klucel (hydroxypropylcellulose) (HPC)
[12] = dose: 50.0 mg/kg/injection, schedule: Q01DX005 (ip), vehicle: saline

Measured: T/C

CC(=O)OCC12C(=O)C(O)C(C)C3(CC(c4ccoc4)OC3OC(C)=O)C1CCCC21CO1 (configuration not stated)
inactive: dose: 15.0 mg/kg/injection, schedule: Q01DX005 (ip), vehicle: Klucel (hydroxypropylcellulose) (HPC) 105 % of control | dose: 30.0 mg/kg/injection, schedule: Q01DX005 (ip), vehicle: Klucel (hydroxypropylcellulose) (HPC) 105 % of control | dose: 60.0 mg/kg/injection, schedule: Q01DX005 (ip), vehicle: Klucel (hydroxypropylcellulose) (HPC) 100 % of control

O/N=C/C1CCCC[N-]1.O/N=C/C1CCCC[N-]1.O/N=C/C1CCCC[N-]1.[Cu] (configuration not stated)
inactive: [1] 87 % of control | [2] 96 % of control | dose: 6.25 mg/kg/injection, schedule: Q01DX009 (ip), vehicle: saline 87 % of control

O=C1CC(O)(c2ccccc2)CS1 (configuration not stated)
inactive: dose: 100.0 mg/kg/injection, schedule: Q04DX003 (ip), vehicle: Klucel (hydroxypropylcellulose) (HPC) 107 % of control | dose: 200.0 mg/kg/injection, schedule: Q04DX003 (ip), vehicle: Klucel (hydroxypropylcellulose) (HPC) 105 % of control | dose: 400.0 mg/kg/injection, schedule: Q04DX003 (ip), vehicle: Klucel (hydroxypropylcellulose) (HPC) 100 % of control

CCCCCCCCCCCCCCCCCC(=O)CC(=O)C(F)(F)F (tested in a mixture with another compound)
inactive: [3] 91 % of control | [4] 92 % of control

O=C(Nc1ccc(CCO)cc1)Nc1cc(C(F)(F)F)ccc1Cl
inactive: [5] 89 % of control | [6] 90 % of control

O=c1n2ccccc2nc2nc3ccccc3n12
inactive: [5] 86 % of control | [6] 86 % of control

CCOC(=O)c1ccc(NCCC(C)=O)cc1
inactive: [3] 91 % of control | [4] 86 % of control | [7] 91 % of control | [8] 95 % of control

COc1ccc(C(=O)C(=O)c2ccc(OC)c(OC)c2)cc1OC
inactive: [4] 96 % of control | [7] 96 % of control | [8] 92 % of control

COc1cccc(C2C(C#N)C(=O)NC(=O)C2C#N)c1 (configuration not stated)
inactive: [9] 102 % of control | [10] 100 % of control | [11] 99 % of control

CCOC(=N)N1[C@H](C)[C@@H]1C
inactive: dose: 12.5 mg/kg/injection, schedule: Q01DX005 (ip), vehicle: Klucel (hydroxypropylcellulose) (HPC) 109 % of control | dose: 25.0 mg/kg/injection, schedule: Q01DX005 (ip), vehicle: Klucel (hydroxypropylcellulose) (HPC) 124 % of control | [12] 86 % of control

CSc1nccn2c(C)nnc12
inactive: dose: 100.0 mg/kg/injection, schedule: Q01DX001 (ip), vehicle: suspension in saline 92 % of control | dose: 200.0 mg/kg/injection, schedule: Q01DX001 (ip), vehicle: suspension in saline 100 % of control

COC(=O)CCSC(=O)Nc1ccc(Cl)cc1
inactive: dose: 50.0 mg/kg/injection, schedule: Q01DX005 (ip), vehicle: Klucel (hydroxypropylcellulose) (HPC) 105 % of control | dose: 100.0 mg/kg/injection, schedule: Q01DX005 (ip), vehicle: Klucel (hydroxypropylcellulose) (HPC) 101 % of control | dose: 200.0 mg/kg/injection, schedule: Q01DX005 (ip), vehicle: Klucel (hydroxypropylcellulose) (HPC) 113 % of control

C=C1C(=O)OC2C1CCC1(C)CCCC(=C)C21 (configuration not stated)
inactive: dose: 2.5 mg/kg/injection, schedule: Q01DX009 (ip), vehicle: Klucel (hydroxypropylcellulose) (HPC) 93 % of control | dose: 5.0 mg/kg/injection, schedule: Q01DX009 (ip), vehicle: Klucel (hydroxypropylcellulose) (HPC) 96 % of control | dose: 10.0 mg/kg/injection, schedule: Q01DX009 (ip), vehicle: Klucel (hydroxypropylcellulose) (HPC) 92 % of control | dose: 20.0 mg/kg/injection, schedule: Q01DX009 (ip), vehicle: Klucel (hydroxypropylcellulose) (HPC) 96 % of control

CC(C)=CCCC(C)(OC1OC(CO)C(O)C(O)C1O)C1CCC2(C)C1C(O)CC1C3(C)CCC(O)C(C)(C)C3C(OC3OC(CO)C(O)C(O)C3OC3OC(C)C(O)C(O)C3O)CC12C (configuration not stated)
inactive: dose: 2.0 mg/kg/injection, schedule: Q01DX009 (ip), vehicle: Klucel (hydroxypropylcellulose) (HPC) 88 % of control | dose: 4.0 mg/kg/injection, schedule: Q01DX009 (ip), vehicle: Klucel (hydroxypropylcellulose) (HPC) 92 % of control | dose: 8.0 mg/kg/injection, schedule: Q01DX009 (ip), vehicle: Klucel (hydroxypropylcellulose) (HPC) 92 % of control | dose: 16.0 mg/kg/injection, schedule: Q01DX009 (ip), vehicle: Klucel (hydroxypropylcellulose) (HPC) 95 % of control | dose: 25.0 mg/kg/injection, schedule: Q01DX009 (ip), vehicle: Klucel (hydroxypropylcellulose) (HPC) 98 % of control | dose: 32.0 mg/kg/injection, schedule: Q01DX009 (ip), vehicle: Klucel (hydroxypropylcellulose) (HPC) 88 % of control | [9] 100 % of control | [10] 100 % of control | [11] 98 % of control

COC1=C(OC)C(=O)C([Si](C)(C)C)=C(CO)C1=O
inactive: dose: 7.5 mg/kg/injection, schedule: Q01DX005 (ip), vehicle: saline with Tween-80 103 % of control | dose: 15.0 mg/kg/injection, schedule: Q01DX005 (ip), vehicle: saline with Tween-80 105 % of control

CC[N+](C)(CC)CCl
inactive: dose: 7.5 mg/kg/injection, schedule: Q01DX005 (ip), vehicle: saline 104 % of control | dose: 15.0 mg/kg/injection, schedule: Q01DX005 (ip), vehicle: saline 99 % of control

C=C(C)C1Cc2c(cc(OC)c3c(=O)c4cccc(O)c4oc23)O1 (configuration not stated)
inactive: dose: 2.5 mg/kg/injection, schedule: Q01DX009 (ip), vehicle: distilled water + alcohol 104 % of control | dose: 5.0 mg/kg/injection, schedule: Q01DX009 (ip), vehicle: distilled water + alcohol 101 % of control | dose: 10.0 mg/kg/injection, schedule: Q01DX009 (ip), vehicle: distilled water + alcohol 99 % of control

CC(=O)SSC(C)(C)C
inactive: [12] 105 % of control | dose: 100.0 mg/kg/injection, schedule: Q01DX005 (ip), vehicle: saline 114 % of control | dose: 200.0 mg/kg/injection, schedule: Q01DX005 (ip), vehicle: saline 103 % of control

C=CC(=NC(C)(C)C)Nc1c(Cl)cccc1Cl
inactive: dose: 0.79 mg/kg/injection, schedule: Q01DX009 (ip), vehicle: saline 100 % of control | [1] 96 % of control | [2] 108 % of control | dose: 6.25 mg/kg/injection, schedule: Q01DX009 (ip), vehicle: saline with Tween-80 114 % of control | dose: 12.5 mg/kg/injection, schedule: Q01DX009 (ip), vehicle: saline with Tween-80 119 % of control | dose: 12.5 mg/kg/injection, schedule: Q01DX009 (ip), vehicle: saline 109 % of control | dose: 25.0 mg/kg/injection, schedule: Q01DX009 (ip), vehicle: saline 116 % of control

CN(C)[C@@H]1C(=O)C(C(N)=O)=C(O)[C@@]2(O)C(=O)C3=C(O)c4c(O)ccc(Cl)c4[C@@](C)(O)[C@H]3C[C@@H]12.[Cl][Sb]([Cl])[Cl]
inactive: dose: 12.5 mg/kg/injection, schedule: Q01DX005 (ip), vehicle: saline with Tween-80 108 % of control | dose: 50.0 mg/kg/injection, schedule: Q01DX005 (ip), vehicle: saline with Tween-80 116 % of control and 120 % of control | dose: 100.0 mg/kg/injection, schedule: Q01DX005 (ip), vehicle: saline with Tween-80 104 % of control

COc1ccc(C(=O)N2CC(OC(C)=O)=CC2=O)cc1
inactive: [9] 107 % of control | [10] 110 % of control | [11] 106 % of control

O=C1CCC(=O)N1CCCN1CCOCC1
inactive: dose: 60.0 mg/kg/injection, schedule: Q01DX005 (ip), vehicle: saline 89 % of control | dose: 120.0 mg/kg/injection, schedule: Q01DX005 (ip), vehicle: saline 88 % of control | dose: 240.0 mg/kg/injection, schedule: Q01DX005 (ip), vehicle: saline 99 % of control
